Experimental findings from ChEMBL document CHEMBL1156286, “Inhibition of eEF2-K by thieno[2,3-b]pyridine analogues” (Bioorg Med Chem Lett, 2010) are described below.

One experiment concerns HCT-116. Put plainly: Cytotoxicity against human HCT116 cells after 72 hrs. The note with it: HCT-116, 72 h. In kind it is functional, cell-based.
Experiment [1] has as its target T1, Eukaryotic elongation factor 2 kinase (Homo sapiens, UniProt O00418).
T1 sequence (O00418 whole entry): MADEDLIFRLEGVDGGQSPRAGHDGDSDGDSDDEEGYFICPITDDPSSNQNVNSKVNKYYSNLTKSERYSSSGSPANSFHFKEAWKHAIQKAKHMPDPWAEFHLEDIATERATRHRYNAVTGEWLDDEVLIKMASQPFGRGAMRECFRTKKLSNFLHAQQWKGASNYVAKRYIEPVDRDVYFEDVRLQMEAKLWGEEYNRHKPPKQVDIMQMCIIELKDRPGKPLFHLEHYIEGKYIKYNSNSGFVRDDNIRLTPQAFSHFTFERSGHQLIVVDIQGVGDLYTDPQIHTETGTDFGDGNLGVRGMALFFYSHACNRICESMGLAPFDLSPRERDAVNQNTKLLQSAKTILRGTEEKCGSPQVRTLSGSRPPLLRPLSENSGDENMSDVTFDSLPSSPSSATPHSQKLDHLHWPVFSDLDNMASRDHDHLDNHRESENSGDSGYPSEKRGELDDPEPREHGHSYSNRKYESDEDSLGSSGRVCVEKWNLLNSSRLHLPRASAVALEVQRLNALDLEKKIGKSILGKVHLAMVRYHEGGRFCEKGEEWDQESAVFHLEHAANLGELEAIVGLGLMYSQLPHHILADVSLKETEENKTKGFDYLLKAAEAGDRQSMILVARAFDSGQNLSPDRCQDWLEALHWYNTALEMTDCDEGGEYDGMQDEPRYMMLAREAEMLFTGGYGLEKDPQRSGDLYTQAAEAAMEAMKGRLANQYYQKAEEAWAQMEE
Briefly: Inhibition of GST tagged eEf2K expressed in Escherichia coli by fluorometric method.

In the next experiment the test system is A549. Put plainly: Cytotoxicity against human A549 cells after 72 hrs. Format: functional, cell-based. Conditions: A549, 72 h.

Where only a bound is given, the exact number is not on record here.

As a reminder, the EC50 is the concentration that produces a half-maximal response. The low end stands for higher potency in that assay, the high end for lower potency in that assay. As a reminder, the IC50 is the concentration that gives 50% inhibition. As for `NC(=O)c1sc2nc3c(cc2c1N)CCCCCC3`, the EC50 with HCT-116 and in the experiment with A549 was 38 µM in each case. For the same molecule, in experiment [1], the IC50 is 2500 nM.
With `NC(=O)c1sc2nc3c(c(-c4ccoc4)c2c1N)CCCCCC3`, the IC50 in experiment [1] came out at 1100 nM.
Regarding `COc1ccc(Cc2cc(-c3ccco3)c3c(N)c(C(N)=O)sc3n2)c(OC)c1`, the IC50 in experiment [1] is greater than 10000 nM.
On the same count and under the same terms, the result for `NC(=O)c1sc2nc3c(c(-c4ccc(CO)o4)c2c1N)CCCCCC3` reads 800 nM.
With `NC(=O)c1sc2nc3c(c(-c4cc5ccccc5o4)c2c1N)CCCCCC3`, the IC50 in experiment [1] came to 330 nM.
For the molecule `Nc1ncnc2c1sc1nc(N3CCOCC3)c3c(c12)CCCC3`, the EC50 with HCT-116 worked out at 29 µM; with A549 it was 6.7 µM. For the same molecule, inhibition in experiment [1] was half-maximal at 220 nM (IC50).
For `COc1ccc(F)c(-c2c3c(nc4sc(C(N)=O)c(N)c24)CCCCCC3)c1`, the IC50 in experiment [1] came out at 1300 nM.
In turn, `Cc1ccsc1-c1c2c(nc3sc(C(N)=O)c(N)c13)CCCCCC2` showed an IC50 in experiment [1] of 460 nM.
For `NC(=O)c1sc2nc3c(c(/C=C/c4ccco4)c2c1N)CCCCCC3`, the EC50 amounted to 19 µM with HCT-116 and 15 µM in the experiment with A549. 320 nM corresponded to half-maximal inhibition in experiment [1] (IC50).
Turning to `NC(=O)c1sc2nc3c(c(-c4ccco4)c2c1N)CCCCC3`, the half-maximal inhibitory concentration (IC50) in experiment [1] came to 1100 nM.
As for `Nc1ncnc2c1sc1nc3c(cc12)CCCCCCC3`, the midpoint of inhibition in experiment [1], the IC50, lay at 3700 nM.
As to `Cc1cc(-c2c3c(nc4sc(C(N)=O)c(N)c24)CCCCCC3)oc1C`, the IC50 in experiment [1] was 1100 nM.
Still for that read-out and setting: next, `NC(=O)c1sc2nc3c(c(-c4ccc(Cl)cc4)c2c1N)CCCCCC3`: 1100 nM; `Cc1cccnc1-c1c2c(nc3sc(C(N)=O)c(N)c13)CCCCCC2`: greater than 20000 nM.
In experiment [1], `NC(=O)c1sc2nc(CC3CCCCC3)cc(-c3ccco3)c2c1N` had an IC50 greater than 10000 nM.
As for `NC(=O)c1sc2nc3c(c(-c4ccc(Cl)o4)c2c1N)CCCCCC3`, the EC50 in the experiment with HCT-116 was 100 µM; with A549 it was 64 µM. Besides, the IC50 in experiment [1] came out at 280 nM.
For the molecule `COC(=O)c1oc(-c2c3c(nc4sc(C(N)=O)c(N)c24)CCCCCC3)cc1C`, the IC50 in experiment [1] is greater than 20000 nM.
Molecule `NC(=O)c1sc2nc3c(c(-c4ccc(C(F)(F)F)o4)c2c1N)CCCCCC3` had an IC50 in experiment [1] of 300 nM.
Still for that read-out and setting: the result for `NC(=O)c1sc2nc3c(c(-c4nccs4)c2c1N)CCCCCC3` reads 1400 nM; that for `NC(=O)c1sc2nc3c(c(-c4ccccc4)c2c1N)CCCCCC3`, greater than 20000 nM.
Still for that read-out and setting: the result for `Cn1cccc1-c1c2c(nc3sc(C(N)=O)c(N)c13)CCCCCC2` reads 990 nM; that for `NC(=O)c1sc2nc3c(c(-c4ccc(Cl)c(Cl)c4)c2c1N)CCCCCC3`, 990 nM.
In experiment [1], `NC(=O)c1sc2nc3c(c(C4CC4)c2c1N)CCCCCC3` gave an IC50 of 2000 nM.
The same measure, in the same setting: the result for `Cc1cccc(-c2c3c(nc4sc(C(N)=O)c(N)c24)CCCCCC3)c1` reads 1200 nM.
Same read-out and setting: next, `CC1CCCc2c1nc1sc(C(N)=O)c(N)c1c2-c1ccco1` (racemic): greater than 20000 nM; `Nc1ncnc2c1sc1nc3c(c(-c4ccco4)c12)CCCCCCC3`: 350 nM.
In the case of `Nc1ncnc2c1sc1nc3c(c(-c4ccco4)c12)CCCCC3`, the EC50 was greater than 100 µM in the experiment with HCT-116 and 17 µM with A549. Half-maximal inhibition in experiment [1] (IC50) was put at 4700 nM.
Consider `NC(=O)c1sc2nc3c(c(-c4ccco4)c2c1N)CCCCCC3`, for which the midpoint of inhibition in experiment [1], the IC50, lay at 640 nM.
In turn, `NC(=O)c1sc2nc3c(c(-c4ccco4)c2c1N)CCCCCCC3` returned an EC50 in the experiment with HCT-116 of 17 µM.
Turning to `Cc1c2c(nc3sc(C(N)=O)c(N)c13)CCCCCC2`, the IC50 in experiment [1] was 1100 nM.
The molecule `COc1ccc(-c2cc(-c3ccco3)c3c(N)c(C(N)=O)sc3n2)c(OC)c1` returned an IC50 in experiment [1] greater than 10000 nM.
The same measure, in the same setting: next, `CC(C)Cc1c2c(nc3sc(C(N)=O)c(N)c13)CCCCCC2`: 860 nM.
On to `CCc1ccc(-c2c3c(nc4sc(C(N)=O)c(N)c24)CCCCCC3)o1`, for which half-maximal inhibition in experiment [1] (IC50) required 660 nM.
As for `NC(=O)c1sc2nc3c(c(CCc4ccccc4)c2c1N)CCCCCC3`, the IC50 in experiment [1] is greater than 20000 nM.
`CC(C)=CCCC(C)c1c2c(nc3sc(C(N)=O)c(N)c13)CCCCCC2` (racemic) yielded an IC50 in experiment [1] of 10000 nM.
Same read-out and setting: next, `NC(=O)c1sc2nc3c(c(-c4ccco4)c2c1N)CCCCCCCC3`: greater than 20000 nM.
